# Experimental data taken from ChEMBL document CHEMBL1147593, “Design and synthesis of benzoxazole derivatives as novel melatoninergic ligands” (Bioorg Med Chem Lett, 2004).
# Assays:
# [1] = target: T1, Melatonin receptor type 1B (Homo sapiens, UniProt P49286); assay: Binding of 2-[125I]iodomelatonin to membrane preparations of NIH3T3 cells stably expressing human Melatonin receptor type 1B; type: cell membranes
# T1 sequence (P49286 whole entry): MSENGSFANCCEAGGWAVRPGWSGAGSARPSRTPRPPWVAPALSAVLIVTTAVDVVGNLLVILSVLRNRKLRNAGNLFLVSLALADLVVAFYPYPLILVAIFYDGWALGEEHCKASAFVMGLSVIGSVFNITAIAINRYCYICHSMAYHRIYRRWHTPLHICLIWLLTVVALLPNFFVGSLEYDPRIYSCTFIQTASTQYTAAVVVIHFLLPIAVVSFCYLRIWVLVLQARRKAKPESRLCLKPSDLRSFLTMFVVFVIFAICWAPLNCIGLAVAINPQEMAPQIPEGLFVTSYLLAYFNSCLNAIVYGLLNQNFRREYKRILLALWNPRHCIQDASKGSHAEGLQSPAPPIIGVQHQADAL
# [2] = target: Melatonin receptor type 1A (Homo sapiens, UniProt P48039); assay: Binding of 2-[125I]iodomelatonin to membrane preparations of NIH3T3 cells stably expressing human Melatonin receptor type 1A; type: cell membranes
# Chain of Melatonin receptor type 1A (P48039 whole entry): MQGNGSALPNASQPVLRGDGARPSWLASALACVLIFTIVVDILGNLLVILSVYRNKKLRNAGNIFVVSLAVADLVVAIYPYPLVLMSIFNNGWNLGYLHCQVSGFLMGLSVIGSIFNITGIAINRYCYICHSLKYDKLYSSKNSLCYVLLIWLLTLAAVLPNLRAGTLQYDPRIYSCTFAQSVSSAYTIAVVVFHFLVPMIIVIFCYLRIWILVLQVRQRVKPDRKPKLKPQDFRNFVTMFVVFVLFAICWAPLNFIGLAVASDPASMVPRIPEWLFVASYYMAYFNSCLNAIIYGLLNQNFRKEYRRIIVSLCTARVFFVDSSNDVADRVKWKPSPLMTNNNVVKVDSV
Structure (SMILES),Ki [1] [pM],Ki [2] [pM]
CCc1nc2cccc([C@@H]3C[C@H]3CNC(=O)C3CC3)c2o1,190,50
CCCC(=O)NC[C@@H]1C[C@H]1c1cccc2nc(CCCCc3ccccc3)oc12,240,50
CC(C)C(=O)NC[C@@H]1C[C@H]1c1cccc2nc(C(C)C)oc12,2500,1300
CCCc1nc2cccc([C@@H]3C[C@H]3CNC(=O)C(C)C)c2o1,280,4900
CCC(=O)NC[C@@H]1C[C@H]1c1cccc2nc(CCCCc3ccccc3)oc12,70,50
CC(=O)NC[C@@H]1C[C@H]1c1cccc2nc(CCCCc3ccccc3)oc12,370,50
CCCC(=O)NC[C@@H]1C[C@H]1c1cccc2nc(CCC)oc12,40,940
CCCc1nc2cccc([C@@H]3C[C@H]3CNC(=O)NCC)c2o1,1000,3500
CCCc1nc2cccc([C@@H]3C[C@H]3CNC(=O)C3CC3)c2o1,140,180
O=C(NC[C@@H]1C[C@H]1c1cccc2nc(CCCCc3ccccc3)oc12)C1CC1,480,50
CCC(=O)NC[C@@H]1C[C@H]1c1cccc2nc(CC)oc12,440,50
CCNC(=O)NC[C@@H]1C[C@H]1c1cccc2nc(C(C)C)oc12,12600,11800
CCc1nc2cccc([C@@H]3C[C@H]3CNC(=O)C(C)C)c2o1,750,200
CCC(=O)NC[C@@H]1C[C@H]1c1cccc2nc(C(C)C)oc12,320,4900
CCCC(=O)NC[C@@H]1C[C@H]1c1cccc2nc(CC)oc12,330,50
CCc1nc2cccc([C@@H]3C[C@H]3CNC(C)=O)c2o1,880,350
